Experimental data published in patent publication US20230374503A1, “COMBINATION” (AstraZeneca AB, priority 2014, published 2023).
In the oligonucleotide strings, read from the 5' end, every base follows the letter of its sugar. An asterisk marks phosphorothioate; unmarked linkages are phosphodiester. Other units and linkages are bracketed, terminal groups are in braces. A string of capitals states the bases alone. k = constrained ethyl (cEt); [5mC] = 5-methylcytosine; d = 2'-deoxy (DNA)

Key:
immune-related genes = test: Nanostring gene expression profiling of patient tumor biopsies, Phase I trial (Example 8); assay type: in vivo, human; conditions: DLBCL patients; 2 or 3 mg/kg; 4-6 weeks on treatment vs baseline; five of six signature genes
Experimental: Tumor biopsies were collected in a Phase I clinical trial from cancer patients treated with AZD9150 before treatment started and at 4-6 weeks after treatment commenced. Patients received three loading doses 2 or 3 mg/kg AZD9150 during the first week on days 1, 3, and 5, followed by weekly doses thereafter. Nine of the sets of biopsies were from patients with Diffuse Large B Cell Lymphoma, two were from patients with follicular lymphoma, and one was from a patient with non-small cell lung cancer. The biopsies were formalin fixed and paraffin embedded and sectioned. RNA was isolated from six five-micron sections of each biopsy and subjected to Nanostring gene expression profiling analysis using the nCounter Human Immunology Codeset representing 594 immune-related genes. Raw data were calibrated according to Veldman-Jones et al., (Cancer Research. 75:2587, 2015) and analyzed for changes on-treatment compared to the baseline pretreatment samples. A heatmap representing unsupervised clustering of the largest and most statistically relevant gene expression changes in DLBCL was generated.

DLBCL and HCC = test: AZD9150 Phase I clinical trials; assay type: in vivo, human
CT-26 tumors = test: CT-26 tumor volume with control ASO and isotype control antibody (Example 4); assay type: in vivo, mouse; conditions: FIG. 4
Experimental: (§1) The antitumor efficacy of mouse STAT3 ASO in combination with antibodies targeting PD-L1 or CTLA-4, or with an OX40 ligand fusion protein, were evaluated in three mouse syngeneic tumor models: CT-26 (colorectal), 4T1 (mammary) and A20 (lymphoma). Details of tumor implantation and treatment schedules for each model are in the table below. The QD×5/wk dosing schedule for the STAT3 ASO (same ASO as used in Example 1) was 5 days of treatment followed by 2 days without treatment. The 2×/wk dosing schedule for antibodies was 2 treatments/wk evenly spaced over the course of the week (e.g., Monday and Thursday, or Tuesday and Friday, etc.). ASO treatments began before randomization into treatment groups. […] There were ten mice in each treatment group.
(§2) The mouse STAT3 ASO was formulated in PBS and dosed subcutaneously. The Abs and FP were also formulated in PBS, and dosed introperitoneally. During the course of the experiment, tumor length and width were measured by caliper, and tumor volume calculated using the formula volume=(length×width^2)*π/6.
The CT-26 experiment in Example 3 included treatment with a control ASO (AZD9150) and an isotype control antibody (rat IgG2b, product LTF-2, purchased from BioXCell, West Lebanon NH) as negative controls.

mouse STAT3 sequences = test: Cross reaction of human STAT3 ASO with mouse STAT3 sequences; conditions: human STAT3 targeted ASO
advanced melanoma = conditions: phase III; cited from earlier work
[1] = tested on: CT-26 (colorectal), 4T1 (mammary) and A20 (lymphoma); test: Three mouse syngeneic tumor models, tumor volume (Example 3); assay type: in vivo; conditions: at the doses and schedules of Example 3; FIG. 3
Experimental: as §1, §2

xenograft model = conditions: via a T-cell dependent mechanism; cited from earlier work

With “AZD9150: human STAT3 antisense 3-10-3 cEt gapmer, phosphorothioate, 5-methylcytosines, CTATTTGGATGTCAGC (SEQ ID NO: 2) (antisense k[5mC]*kT*kA*dT*dT*dT*dG*dG*dA*dT*dG*dT*d[5mC]*kA*kG*k[5mC])” the “upregulated "interferon gamma gene signature" genes in tumor biopsies” value (immune-related genes) was “STAT1, IFN-gamma, CXCL9, CXCL10, and IDO”, the clinical response (DLBCL and HCC) was “clinical responses in DLBCL and HCC at tolerated doses” and the “enhancement of the activity of the anti-PD-L1 antibody” value (CT-26 tumors; AZD9150 plus PD-L1 Ab, CT-26 tumors) was “no enhancement of the activity of the anti-PD-L1 antibody”. For the same molecule, the “antitumor activity of negative controls” value (CT-26 tumors; mice bearing CT-26 tumors) was “No Antitumor Activity” and the “cross reaction with mouse STAT3 sequences” value (mouse STAT3 sequences) was “does not cross react with mouse STAT3 sequences”.

In the case of “tremelimumab: human IgG2 monoclonal antibody highly selective for CTLA-4”, the “overall survival compared to standard of care (temozolomide or dacarbazine)” value (advanced melanoma) is listed as “did not significantly increase the overall survival”.

B1: OX40 ligand FP: Mouse OX40 ligand fusion protein generated in house, SEQ ID NO: 37 and 38 (protein)
chain: VPRDCGCKPCICTVPEVSSVFIFPPKPKDVLTITLTPKVTCVVVDISKDDPEVQFSWFVDDVEVHTAQTQPREEQFNSTFRSVSELPIMHQDWLNGKEFKCRVNSAAFPAPIEKTISKTKGRPKAPQVYTIPPPKEQMAKDKVSLTCMITDFFPEDITVEWQWNGQPAENYKNTQPIMDTDGSYFVYSKLNVQKSNWEAGNTFTCSVLHEGLHNHHTEKSLSHSPGKRLDQDKIEALSNKVQQLERSIGLKDLAMADLEQKVSELEVSTSSPAKDPPIQRLRGAVTRCEDGQLFISSYKNEYQTMEVQNNSVVIKCDGLYIIYLKGSFFQEVKIDLHFREDHNPISIPMLNDGRRIVFTVVASLAFKDKVYLTVNAPDTLCEHLQINDGELIVVQLTPGYCAPEGSYHSTVNQVPL
modifications: misc_feature 1..1248 DNA Sequence of mouse construct mIgG1mTF2mOX40L
For B1, the “single agent antitumor activity” value [1] was “weak to modest single agent antitumor activity”.

B2: MEDI4736: human monoclonal antibody directed against human PD-L1 (antibody, V domains shown)
VH: EVQLVESGGGLVQPGGSLRLSCAASGFTFSRYWMSWVRQAPGKGLEWVANIKQDGSEKYYVDSVKGRFTISRDNAKNSLYLQMNSLRAEDTAVYYCAREGGWFGELAFDYWGQGTLVTVSS
VL: EIVLTQSPGTLSLSPGERATLSCRASQRVSSSYLAWYQQKPGQAPRLLIYDASSRATGIPDRFSGSGSGTDFTLTISRLEPEDFAVYYCQQYGSLPWTFGQGTKVEIK
modifications: MEDI4736 VH; Sequence 72 from PCT/US2010/058007; MEDI4736 VL; Sequence 77 from PCT/US2010/058007
notes: human monoclonal antibody directed against human PD-L1
In the case of B2, the “tumor growth in a xenograft model” value (xenograft model) is listed as “inhibits tumor growth”.
